Results: ChEMBL document CHEMBL4219047, “Optimization of peptide-based polyagonists for treatment of diabetes and obesity” (Bioorg Med Chem, 2018)

What was measured:
Glucagon receptor [1] = biological target: Glucagon receptor (Mus musculus, UniProt Q61606); experiment: Agonist activity at mouse GCG receptor expressed in CHO cells assessed as increase in cAMP level by TR-FRET assay; format: functional, cell-based
Mus musculus = species on record: Mus musculus; experiment: Selectivity ratio of EC50 for mouse GLP1 receptor to EC50 for mouse GCG receptor
Glucagon receptor [2] = biological target: T1, Glucagon receptor (Homo sapiens, UniProt P47871); experiment: Agonist activity at human GCG receptor expressed in CHO cells assessed as increase in cAMP level by TR-FRET assay relative to glucagon; format: functional, cell-based
[3] = biological target: Glucagon-like peptide 1 receptor (Homo sapiens, UniProt P43220); experiment: Agonist activity at human GLP1 receptor expressed in CHO cells assessed as increase in cAMP level by TR-FRET assay; format: functional, cell-based
[4] = biological target: T2, Glucagon-like peptide 1 receptor (Mus musculus, UniProt O35659); experiment: Agonist activity at mouse GLP1 receptor expressed in CHO cells assessed as increase in cAMP level by TR-FRET assay; format: functional, cell-based
T2 sequence (O35659 whole entry): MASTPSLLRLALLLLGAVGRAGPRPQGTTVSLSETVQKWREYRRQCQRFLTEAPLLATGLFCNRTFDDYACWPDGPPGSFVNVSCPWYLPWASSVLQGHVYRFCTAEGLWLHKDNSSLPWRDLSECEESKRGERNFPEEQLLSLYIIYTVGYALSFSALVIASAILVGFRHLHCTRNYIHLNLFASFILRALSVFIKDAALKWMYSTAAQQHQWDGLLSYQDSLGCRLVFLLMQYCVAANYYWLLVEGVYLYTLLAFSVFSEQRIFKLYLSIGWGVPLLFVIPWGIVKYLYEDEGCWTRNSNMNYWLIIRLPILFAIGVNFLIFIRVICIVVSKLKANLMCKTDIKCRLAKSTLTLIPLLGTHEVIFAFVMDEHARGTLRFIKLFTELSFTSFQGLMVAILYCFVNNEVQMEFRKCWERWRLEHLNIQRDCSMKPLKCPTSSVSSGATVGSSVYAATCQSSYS

Glucagon receptor [5] = biological target: T1, Glucagon receptor; experiment: Agonist activity at human GCG receptor expressed in CHO cells assessed as increase in cAMP level by TR-FRET assay; format: functional, cell-based

T1 sequence (P47871 whole entry): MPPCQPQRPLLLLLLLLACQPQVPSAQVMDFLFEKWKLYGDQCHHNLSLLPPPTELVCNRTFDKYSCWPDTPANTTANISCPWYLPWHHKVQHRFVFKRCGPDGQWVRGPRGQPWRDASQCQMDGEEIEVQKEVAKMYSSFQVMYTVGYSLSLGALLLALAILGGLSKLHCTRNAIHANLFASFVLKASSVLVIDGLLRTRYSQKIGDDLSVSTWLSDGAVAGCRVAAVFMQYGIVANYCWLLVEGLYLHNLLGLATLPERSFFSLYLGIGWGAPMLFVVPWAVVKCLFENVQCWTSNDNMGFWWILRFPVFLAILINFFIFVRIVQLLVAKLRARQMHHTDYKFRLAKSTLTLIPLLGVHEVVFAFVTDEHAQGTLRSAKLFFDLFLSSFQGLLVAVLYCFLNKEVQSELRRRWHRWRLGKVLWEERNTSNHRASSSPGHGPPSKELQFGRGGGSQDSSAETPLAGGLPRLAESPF
Glucagon-like peptide 1 receptor (Homo sapiens, UniProt P43220), sequence (P43220 whole entry): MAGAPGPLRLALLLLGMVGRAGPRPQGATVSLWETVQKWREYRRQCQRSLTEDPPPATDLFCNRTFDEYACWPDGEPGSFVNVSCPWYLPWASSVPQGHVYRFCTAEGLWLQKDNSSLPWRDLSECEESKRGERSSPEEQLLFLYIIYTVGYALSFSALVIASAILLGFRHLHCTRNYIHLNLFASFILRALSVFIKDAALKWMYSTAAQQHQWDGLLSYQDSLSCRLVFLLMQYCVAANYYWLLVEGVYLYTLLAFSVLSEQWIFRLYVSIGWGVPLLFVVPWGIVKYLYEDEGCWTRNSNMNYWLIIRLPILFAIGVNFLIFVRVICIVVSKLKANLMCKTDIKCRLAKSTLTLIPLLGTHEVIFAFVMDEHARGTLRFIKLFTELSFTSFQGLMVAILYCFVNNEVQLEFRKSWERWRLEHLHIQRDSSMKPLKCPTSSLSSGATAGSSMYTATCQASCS
Glucagon receptor (Mus musculus, UniProt Q61606), sequence (Q61606 whole entry): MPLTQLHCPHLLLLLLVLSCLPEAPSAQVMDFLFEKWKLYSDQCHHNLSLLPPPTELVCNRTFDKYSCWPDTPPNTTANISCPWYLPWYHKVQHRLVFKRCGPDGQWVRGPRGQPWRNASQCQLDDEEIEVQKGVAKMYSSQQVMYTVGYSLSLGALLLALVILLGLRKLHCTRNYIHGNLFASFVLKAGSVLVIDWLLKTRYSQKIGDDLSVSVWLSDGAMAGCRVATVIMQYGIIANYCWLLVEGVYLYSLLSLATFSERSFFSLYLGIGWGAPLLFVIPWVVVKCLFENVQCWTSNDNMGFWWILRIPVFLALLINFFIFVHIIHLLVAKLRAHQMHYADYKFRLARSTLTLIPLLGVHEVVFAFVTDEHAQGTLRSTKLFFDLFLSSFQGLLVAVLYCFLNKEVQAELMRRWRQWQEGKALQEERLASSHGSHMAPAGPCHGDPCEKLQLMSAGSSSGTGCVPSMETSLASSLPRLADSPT

SMILES: CC[C@H](C)[C@H](NC(=O)[C@H](Cc1ccccc1)NC(=O)[C@H](CCC(=O)O)NC(=O)[C@H](CCCCN)NC(=O)[C@H](C)NC(=O)[C@H](C)NC(=O)[C@H](CCC(N)=O)NC(=O)CNC(=O)[C@H](CCC(=O)O)NC(=O)[C@H](CC(C)C)NC(=O)[C@H](Cc1ccc(O)cc1)NC(=O)[C@H](CCCCN)NC(=O)[C@H](CO)NC(=O)[C@@H](NC(=O)[C@H](CC(=O)O)NC(=O)[C@H](CO)NC(=O)[C@@H](NC(=O)[C@H](Cc1ccccc1)NC(=O)[C@@H](NC(=O)CNC(=O)[C@H](CCC(=O)O)NC(=O)[C@H](C)NC(=O)[C@@H](N)Cc1cnc[nH]1)[C@@H](C)O)[C@@H](C)O)C(C)C)C(=O)N[C@@H](C)C(=O)N[C@@H](Cc1c[nH]c2ccccc12)C(=O)N[C@@H](CC(C)C)C(=O)N[C@H](C(=O)N[C@@H](CCCCN)C(=O)NCC(=O)N[C@@H](CCCNC(=N)N)C(N)=O)C(C)C
- EC50 (Glucagon receptor [1]): > 100 nM
- Ratio EC50 (Mus musculus): < 0.001
- Activity (Glucagon receptor [2]): < 0.05%
- EC50 [3]: 0.09 nM
- EC50 [4]: 0.03 nM
- EC50 (Glucagon receptor [5]): > 1000 nM
